Data from patent US20090221624A1, “4-AMINOQUINOLINE COMPOUNDS FOR TREATING VIRUS-RELATED CONDITIONS” (priority 2005, published 2009).

Experiments:
[1] = test system: EBOV minigenome; test: microbe, parasite or virus in culture; format: cell-based, Ebola virus; details: Zaire ebolavirus; for inhibition at 25 µM: 24 h, read-out: EBOV Inh; for EC50: read-out: EBOV EC50
[2] = in vitro
[3] = test system: HCV replicon (Clone A cells, Huh7, subgenomic hepatits C virus RNA); test: HCV Neo screening assay (HCV replicon, NPTII ELISA); format: cell-based, hepatitis C virus; details: for EC50 / inhibition at 25 µM: Hepatitis C virus, Huh-7; for EC50: Secondary Data, HCV; for inhibition at 25 µM: primary screening, 25 μM final concentration, 24 hours, percent inhibition of viral replication, read-out: HCV Inh; for HCV TI: therapeutic index CC50/EC50, HCV
[4] = test system: SINV (SR19-F-luc cells); test: SINV antiviral activity, SR19-F-luc cells, Firefly luciferase; format: cell-based; details: Sindbis virus; for inhibition at 25 µM: primary screening, 25 μM final concentration, 24 hours, percent inhibition of viral replication, read-out: SINV Inh; for EC50: secondary screening, SR19-F-luc cells
[5] = test system: YFV (YF-hRuPac cells); test: microbe, parasite or virus in culture; format: cell-based, yellow fever virus; details: for inhibition at 25 µM / EC50: Yellow fever virus; for inhibition at 25 µM: 24 h, read-out: YFV Inh; for EC50: read-out: YFV EC50
[6] = test system: RSV minigenome; test: RSV minigenome-dependent β-galactosidase expression assay (RSV β-Gal); format: cell-based, respiratory syncytial virus; details: for EC50 / inhibition at 25 µM: human respiratory syncytial virus; for EC50: Secondary Data, RSV, read-out: RSV EC50; for inhibition at 25 µM: primary screening, 25 μM final concentration, 24 hours, percent inhibition of viral replication, read-out: RSV Inh; for RSV TI: therapeutic index CC50/EC50, RSV
[7] = test system: WNV (WN-hRuPac cells); test: WNV antiviral activity, WN-hRuPac cells, Renilla luciferase; format: cell-based, West Nile virus; details: for EC50 / inhibition at 25 µM: West Nile virus; for EC50: Secondary Data, WNV, read-out: WNV EC50; for inhibition at 25 µM: primary screening, 25 μM final concentration, 24 hours, percent inhibition of viral replication, read-out: WNV Inh; for WNV TI: therapeutic index CC50/EC50, WNV
[8] = test system: DNG (D2-hRuPac cells); test: DNG antiviral activity, D2-hRuPac cells, Renilla luciferase; format: cell-based, Dengue fever virus; details: Dengue virus, secondary screening

SMILES	inhibition at 25 µM [1]	EC50 [1]	CC50 ([2]; DNG CC50)	CC50 ([2]; EBOV CC50)	CC50 ([2]; RSV CC50)	CC50 ([2]; SINV CC50)	CC50 ([2]; WNV CC50)	CC50 ([2]; YFV CC50)	inhibition at 25 µM [3]	inhibition at 25 µM [4]	EC50 [4]	inhibition at 25 µM [5]	EC50 [5]	EC50 [6]	inhibition at 25 µM [6]	RSV TI [6]	EC50 [7]	inhibition at 25 µM [7]	EC50 [8]	YFV TI [5]	also measured
COc1ccc(Nc2cc(C)nc3c2ccc2ccccc23)cc1 [Compound 7]	85.3%	10.8 µM	≥ 75 µM	≥ 75 µM	≥ 75 µM	≥ 75 µM	≥ 75 µM	≥ 75 µM	104%	7.58%	≥ 75 µM	64.1%	≥ 75 µM	10 µM	76.9%	7.5	≥ 75 µM	34.3%	17 µM	–	CC50 ([2]; HCV CC50): 14 µM; EC50 [3]: 5.87 µM; HCV TI [3]: 2.39
Cc1cc(C)c2nc(C)cc(Nc3ccc(O)cc3)c2c1 [Compound 49]	69.9%	6.88 µM	39.3 µM	39.3 µM	39.3 µM	39.3 µM	39.3 µM	39.3 µM	113%	72.5%	≥ 75 µM	66.5%	11 µM	4.39 µM	90.2%	8.94	5.58 µM	66.4%	13.2 µM	3.57	CC50 ([2]; HCV CC50): 16.3 µM; EC50 [3]: 11.1 µM; HCV TI [3]: 1.47; WNV TI [7]: 7.04
COc1cccc2c(Nc3cccc([N+](=O)[O-])c3)cc(C)nc12 [Compound 25]	99.4%	75 µM	22.9 µM	22.9 µM	22.9 µM	22.9 µM	22.9 µM	22.9 µM	159%	99.8%	2.13 µM	100%	3.67 µM	4.73 µM	99.9%	4.85	3.18 µM	100%	3.89 µM	6.25	CC50 ([2]; HCV CC50): 12.7 µM; EC50 [3]: 4.85 µM; HCV TI [3]: 2.62; WNV TI [7]: 7.22
C=CCNc1c2c(nc3ccccc13)CCC2 [Compound 12]	49.8%	45.4 µM	71.7 µM	71.7 µM	71.7 µM	71.7 µM	71.7 µM	71.7 µM	10.3%	69.4%	6.89 µM	31.3%	61.2 µM	6.42 µM	31%	11.17	19.5 µM	47.5%	69.2 µM	1.17	CC50 ([2]; HCV CC50): 71 µM; WNV TI [7]: 3.68
CCOC(=O)c1cnc2ccccc2c1NCc1ccco1 [Compound 30]	71%	12.6 µM	55.4 µM	55.4 µM	55.4 µM	55.4 µM	55.4 µM	55.4 µM	-18.1%	-9.95%	≥ 75 µM	92.5%	5.5 µM	1.45 µM	80.3%	38.18	4.6 µM	93.7%	12 µM	10.07	CC50 ([2]; HCV CC50): ≥ 75 µM; WNV TI [7]: 12.04
Cc1cc(Nc2ccc(C)c(C)c2)c2cc(Cl)ccc2n1 [Compound 47]	49.5%	75 µM	56 µM	56 µM	56 µM	56 µM	56 µM	56 µM	149%	61.4%	7.23 µM	77.7%	19.6 µM	3.96 µM	96.4%	14.14	8.66 µM	73%	39.4 µM	2.86	CC50 ([2]; HCV CC50): 7.84 µM; EC50 [3]: 11 µM; HCV TI [3]: 0.71; WNV TI [7]: 6.47
CC(=O)c1cccc(Nc2cc(C)nc3ccccc23)c1 [Compound 17]	-42%	75 µM	≥ 75 µM	≥ 75 µM	≥ 75 µM	≥ 75 µM	≥ 75 µM	≥ 75 µM	12.3%	72.1%	3.83 µM	54%	63.6 µM	37.3 µM	50.7%	2.01	≥ 75 µM	40.3%	≥ 75 µM	1.18	CC50 ([2]; HCV CC50): 30.4 µM
CCOc1ccc2nc(C)cc(Nc3ccc(OC)c(OC)c3)c2c1 [Compound 56]	89.3%	47.5 µM	27.8 µM	27.8 µM	27.8 µM	27.8 µM	27.8 µM	27.8 µM	128%	95.8%	2.33 µM	98.7%	3.51 µM	3.33 µM	99%	8.36	3.5 µM	95.7%	8.48 µM	7.93	CC50 ([2]; HCV CC50): 6.69 µM; EC50 [3]: 4.56 µM; HCV TI [3]: 1.47; WNV TI [7]: 7.95
Cc1cc(C)c2nc(C)cc(Nc3ccc(OCc4ccccc4)cc3)c2c1 [Compound 44]	99.6%	75 µM	27.4 µM	27.4 µM	27.4 µM	27.4 µM	27.4 µM	27.4 µM	94.7%	95.8%	3.57 µM	100%	2.26 µM	3.88 µM	98.9%	7.06	4.29 µM	99.9%	3.39 µM	12.12	CC50 ([2]; HCV CC50): 5.05 µM; EC50 [3]: 2.93 µM; HCV TI [3]: 1.72; WNV TI [7]: 6.39
Cc1ccc2nc(C)cc(NCc3ccccc3)c2c1 [Compound 18]	-29.5%	–	56.4 µM	56.4 µM	56.4 µM	56.4 µM	56.4 µM	56.4 µM	36.9%	54.4%	15.3 µM	61.5%	9.07 µM	5.57 µM	88.6%	10.12	21.3 µM	63.9%	31.5 µM	6.21	WNV TI [7]: 2.65
c1cncc(CNc2c3ccccc3nc3ccccc23)c1 [Compound 5]	86%	15.3 µM	28.6 µM	28.6 µM	28.6 µM	28.6 µM	28.6 µM	28.6 µM	211%	29.6%	7.02 µM	84.7%	11.1 µM	2.8 µM	98.5%	10.2	7.15 µM	89.3%	3.64 µM	2.57	CC50 ([2]; HCV CC50): 9.67 µM; EC50 [3]: 1.76 µM; HCV TI [3]: 5.49; WNV TI [7]: 3.99
CCCOC(=O)c1ccc(Nc2cc(C)nc3ccc(C(=O)OCC)cc23)cc1 [Compound 63]	92%	9.03 µM	70.1 µM	70.1 µM	70.1 µM	70.1 µM	70.1 µM	70.1 µM	57.2%	53.3%	≥ 75 µM	54.2%	51.8 µM	72.2 µM	56.4%	0.97	44.1 µM	55%	44.8 µM	1.35	WNV TI [7]: 1.59
